Where “and” joins values, the source holds several entries; their conditions need not be identical. Equal values may be shown once.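 All cell lines were grown in 96-well plates and treated with compound for 48 hours. GI50 marks 50% less growth. TGI denotes the concentration required for complete inhibition of growth.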
What was measured:
Assay in all cases: DTP human tumour cell line panel, 48 h
A498 renal = system: A498 renal
COLO 205 colon = system: COLO 205 colon
HCT-116 colon = system: HCT-116 colon
M14 melanoma = system: M14 melanoma
MOLT-4 leukemia = system: MOLT-4 leukemia
NCI/ADR-RES ovarian = system: NCI/ADR-RES ovarian
OVCAR-5 ovarian = system: OVCAR-5 ovarian
SF-539 CNS = system: SF-539 CNS
SK-MEL-28 melanoma = system: SK-MEL-28 melanoma
T-47D breast = system: T-47D breast

Structure (SMILES) | TGI (A498 renal) | TGI (COLO 205 colon) | TGI (HCT-116 colon) | TGI (M14 melanoma) | TGI (MOLT-4 leukemia) | TGI (NCI/ADR-RES ovarian) | TGI (OVCAR-5 ovarian) | TGI (SF-539 CNS) | TGI (SK-MEL-28 melanoma) | TGI (T-47D breast) | GI50 (A498 renal) | GI50 (COLO 205 colon) | GI50 (HCT-116 colon) | GI50 (M14 melanoma) | GI50 (MOLT-4 leukemia) | GI50 (OVCAR-5 ovarian) | GI50 (SF-539 CNS) | GI50 (SK-MEL-28 melanoma) | GI50 (T-47D breast)
COC(=O)c1cc(OC)c(OC)c(OC)c1-c1cc2c(cc1C=O)OCO2 | > 10 µM | > 10 µM | > 10 µM | > 10 µM | > 10 µM | > 10 µM | > 10 µM | > 10 µM | > 10 µM | > 10 µM |  |  |  |  |  |  |  |  | 
CC(=O)OCC1OC(n2c(Br)nc3c2c(=O)n(C)c(=O)n3C)C(OC(C)=O)C1OC(C)=O (centres undefined) | > 100 µM | > 100 µM | > 100 µM | > 100 µM | > 100 µM | > 100 µM | > 100 µM | > 100 µM | > 100 µM | > 100 µM |  |  |  |  |  |  |  |  | 
NCCN1C(=O)c2ccccc2C1c1ccc(Cl)cc1 (centres undefined) | > 100 µM | > 100 µM | > 100 µM | > 100 µM | > 100 µM | > 100 µM | > 100 µM | > 100 µM | > 100 µM | > 100 µM |  |  |  |  |  |  |  |  | 
Cc1c2c(n(CC(c3ccccc3)c3ccccc3)c1C)NN=C(C#N)S2(=O)=O | > 100 µM | > 100 µM | > 100 µM | > 100 µM | > 100 µM | > 100 µM | > 100 µM | > 100 µM | > 100 µM | > 100 µM |  |  |  |  |  |  |  |  | 
COc1cc(OC)c2c(c1)OC(c1cccnc1)C(c1ccccc1)C2=O (centres undefined) | > 100 µM | > 100 µM | > 100 µM | > 100 µM | > 100 µM | > 100 µM | > 100 µM | > 100 µM | > 100 µM | > 100 µM |  |  |  |  |  |  |  |  | 
CC(=O)OCC1OC(n2c(S)c(C#N)c(-c3ccccc3)c(C#N)c2=O)C(OC(C)=O)C(OC(C)=O)C1OC(C)=O (centres undefined) | > 100 µM and 74 µM | > 100 µM and 65.3 µM | > 100 µM | > 100 µM | > 100 µM and 50.8 µM | > 100 µM | > 100 µM | > 100 µM and 70.9 µM | > 100 µM and 62.8 µM | > 100 µM and 54.4 µM | > 69 µM and 30.3 µM | > 100 µM and 26.1 µM | > 100 µM and 39.3 µM | > 100 µM and 36.5 µM | > 100 µM and 23.6 µM | > 100 µM and 39.7 µM | 51.6 µM and 25.7 µM | > 100 µM and 25.7 µM | > 100 µM and 18.6 µM
COC(=O)C1(SC)C2CCC3C2CCC31 (centres undefined) | > 100 µM | > 100 µM | > 100 µM | > 100 µM | > 100 µM | > 100 µM | > 100 µM | > 100 µM | > 100 µM | > 100 µM |  |  |  |  |  |  |  |  | 
C(#CP(c1ccccc1)c1ccccc1)P(C#CP(c1ccccc1)c1ccccc1)c1ccccc1 | > 100 µM | > 100 µM | > 100 µM | 13 µM | > 100 µM | > 100 µM | > 100 µM | > 100 µM | > 100 µM | > 100 µM |  |  |  |  |  |  |  |  | 
COc1ccccc1C(=O)NCC1CCCN2CCCCC12 (centres undefined) | > 100 µM | > 100 µM | > 100 µM | > 100 µM | > 100 µM | > 100 µM | > 100 µM | > 100 µM | > 100 µM | > 100 µM |  |  |  |  |  |  |  |  | 
COC(=O)C1OC(O[C@H]2CC[C@]3(C)[C@H]4CC=C5[C@@H]6CC(C)(C)CC[C@]6(C(=O)OC6OCC(O)C(O)C6OC6OC(C)C(OC7OCC(O)C(O)C7O)C(OC7OCC(O)(CO)C7O)C6O)[C@H](O)C[C@@]5(C)[C@]4(C)CC[C@H]3C2(C)C)C(O)C(O)C1O (some centres undefined) | 3.3 µM | 2.92 µM | 13.5 µM | 7.41 µM | > 100 µM | 18.2 µM | 13.4 µM | > 100 µM | 4.69 µM | 15.3 µM |  |  |  |  |  |  |  |  | 
COC1C(N(C)C)=C(c2ccccc2)C(=O)N2CCc3ccccc3C12 (centres undefined) | > 100 µM | > 100 µM | > 100 µM | > 100 µM | > 100 µM | > 100 µM | > 100 µM | > 100 µM | > 100 µM | > 100 µM |  |  |  |  |  |  |  |  | 
C(=Nc1ccc(-c2nc3ccccc3s2)cc1)c1ccc[nH]1 | 36.5 µM | 31.8 µM | 29.9 µM | 34.2 µM | 38.8 µM | 44.6 µM | 51.4 µM | 37.3 µM | 42.5 µM | 47.3 µM |  |  |  |  |  |  |  |  | 
Cn1c(=O)c2c(nc3sc4ccccc4c(=O)n32)n(C)c1=O | > 100 µM | > 100 µM | > 100 µM | > 100 µM | > 100 µM | > 100 µM | > 100 µM | > 100 µM | > 100 µM | > 100 µM |  |  |  |  |  |  |  |  | 
COc1ccc(C2C(=O)c3c(OC)cc(OC)cc3OC2c2cccnc2)cc1 (centres undefined) | > 100 µM | > 100 µM | > 100 µM | > 100 µM | > 100 µM | > 100 µM | > 100 µM | > 100 µM | > 100 µM | > 100 µM |  |  |  |  |  |  |  |  | 
CC1=CP(=O)(c2c(C(C)C)cc(C(C)C)cc2C(C)C)CCC1Cl (centres undefined) | 30.4 µM | 29.8 µM | 38.4 µM | 29.8 µM | 49.6 µM | 40.2 µM | 32.5 µM | 32.9 µM | 35.1 µM | 31.9 µM |  |  |  |  |  |  |  |  | 

— PubChem BioAssay (NCI)
